Test results as given in the supplement of paper PMC9663587.

How the values were obtained:
YKL-5-124 = compound: C=CC(=O)Nc1ccc(C(=O)Nc2[nH]nc3c2CN(C(=O)N[C@H](CN(C)C)c2ccccc2)C3(C)C)cc1 [YKL-5-124]
[1] = compound: COc1cccc(OCCCN)c1-c1cc(Nc2cnc(C#N)cn2)n[nH]1
[2] = compound: CC(=O)c1c(C)c2cnc(Nc3ccc(N4CCNCC4)cn3)nc2n(C2CCCC2)c1=O; test: GR value, 72 h; higher = faster growth (1 = untreated, <0 = killing);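 further: breast cancer and non-malignant breast epithelial lines, nine half-log doses, viable cells counted by Hoechst and LIVE/DEAD dye imaging versus time-zero plates and DMSO controls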
Neratinib/HKI272 = compound: CCOc1cc2ncc(C#N)c(Nc3ccc(OCc4ccccn4)c(Cl)c3)c2cc1NC(=O)/C=C/CN(C)C [Neratinib/HKI272]; test: as above
Everolimus = compound: CO[C@H]1C[C@@H]2CC[C@@H](C)[C@@](O)(O2)C(=O)C(=O)N2CCCC[C@H]2C(=O)O[C@H]([C@H](C)C[C@@H]2CC[C@@H](OCCO)[C@H](OC)C2)CC(=O)[C@H](C)/C=C(\C)[C@@H](O)[C@@H](OC)C(=O)[C@H](C)C[C@H](C)/C=C/C=C/C=C/1C [Everolimus]
Cisplatin = compound: N.N.Cl[Pt]Cl [Cisplatin]
Bleomycin = compound: CC1=C(N=C(N=C1N)[C@H](CC(=O)N)NC[C@@H](C(=O)N)N)C(=O)N[C@@H]([C@H](C2=CN=CN2)OC3C(C(C(C(O3)CO)O)O)OC4C(C(C(C(O4)CO)O)OC(=O)N)O)C(=O)N[C@H](C)[C@H]([C@H](C)C(=O)N[C@@H]([C@@H](C)O)C(=O)NCCC5=NC(=CS5)C6=NC(=CS6)C(=O)NCCC[S+](C)C)O [Bleomycin]; settings: main component drawn
Etoposide = compound: COc1cc([C@@H]2c3cc4c(cc3[C@@H](O[C@@H]3O[C@@H]5CO[C@@H](C)O[C@H]5[C@H](O)[C@H]3O)[C@H]3COC(=O)[C@H]23)OCO4)cc(OC)c1O [Etoposide]
Topotecan = compound: CC[C@@]1(O)C(=O)OCc2c1cc1n(c2=O)Cc2cc3c(CN(C)C)c(O)ccc3nc2-1 [Topotecan]
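Wherever GR50, 72 h is given: breast cancer and non-malignant breast epithelial cell lines, Deep Dye Drop or Dye Drop imaging, nine half-log doses, GR normalized to time-zero plates and DMSO-only controls.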

Cell Line	GR50, 72 h (YKL-5-124) [µM]	GR50, 72 h [1] [µM]	GR value ([2]; 0.0003162 µM) [GR]	GR value ([2]; 0.001 µM) [GR]	GR value ([2]; 0.003162 µM) [GR]	GR value ([2]; 0.01 µM) [GR]	GR value ([2]; 0.03162 µM) [GR]	GR value ([2]; 0.1 µM) [GR]	GR value ([2]; 0.3162 µM) [GR]	GR value ([2]; 1 µM) [GR]	GR value ([2]; 3.162 µM) [GR]	GR value (Neratinib/HKI272; 0.0003162 µM) [GR]	GR value (Neratinib/HKI272; 0.001 µM) [GR]	GR value (Neratinib/HKI272; 0.003162 µM) [GR]	GR value (Neratinib/HKI272; 0.01 µM) [GR]	GR value (Neratinib/HKI272; 0.03162 µM) [GR]	GR value (Neratinib/HKI272; 0.1 µM) [GR]	GR value (Neratinib/HKI272; 0.3162 µM) [GR]	GR value (Neratinib/HKI272; 1 µM) [GR]	GR value (Neratinib/HKI272; 3.162 µM) [GR]	GR50, 72 h (Everolimus) [µM]	GR50, 72 h (Cisplatin) [µM]	GR50, 72 h (Bleomycin) [µM]	GR50, 72 h (Etoposide) [µM]	GR50, 72 h (Topotecan) [µM]
UACC893	0.00386	0.0579	0.92	0.914	0.79	0.671	0.422	0.406	0.366	0.358	0.355	1.06	0.922	0.372	-0.192	-0.409	-0.604	-0.688	-0.784	-0.908					
MDAMB157			0.945	0.976	0.969	1.08	1.02	1.02	0.965	1.05	0.991	1.03	0.981	1.04	1	0.921	0.842	0.708	0.445	0.151	> 10	5.24	1.29	0.112	0.00595
MDAMB415	0.00409		0.995	0.983	0.933	0.791	0.498	0.298	0.17	0.178	0.121	1.06	1.08	1.13	1.1	1.06	0.989	0.889	0.737	0.0984					
PDX1206	0.0811	0.00357																							
HCC1569		0.00228	0.957	0.991	1.03	1.05	0.928	0.938	1.06	0.932	1.05	0.95	0.948	0.863	0.708	0.612	0.537	0.363	0.225	0.124	> 10				
MCF7	< 0.001		1.04	1.02	0.962	0.85	0.626	0.476	0.355	0.297	0.254	1.04	1.03	0.998	0.951	0.947	0.931	0.774	0.657	0.0611	0.00269	9.32	0.0772	0.135	0.00604
SUM190PT	< 0.001	0.00042	0.986	1.02	1.09	0.949	0.62	0.316	0.35	0.336	0.378	1.06	1.04	1.06	0.999	1.08	0.956	0.915	0.658	0.429	0.00331				
HCC70	< 0.001		0.988	1.07	1.08	1.07	1.09	0.961	1.06	1.05	0.896	1.04	0.943	1.02	0.986	0.79	0.621	0.377	0.128	0.0733	0.245	1.32	0.398	0.365	0.00946
MDAMB330		0.000237	1.06	0.943	0.931	0.747	0.376	0.224	0.17	0.228	0.213	0.967	0.831	0.218	-0.306	-0.546	-0.592	-0.599	-0.656	-0.62	< 0.001				
ZR7530			1.08	1.08	1.06	0.858	0.665	0.482	0.321	0.451	0.253	0.699	0.374	0.0338	-0.0663	-0.199	-0.22	-0.262	-0.411	-0.497					
SUM229PE	< 0.001	0.00707	0.988	0.983	0.933	0.906	0.848	0.711	0.563	0.536	0.392	1.03	0.967	0.972	0.951	0.952	0.751	0.562	0.386	0.203	> 10				
184A1	< 0.001		1.04	0.968	0.963	0.848	0.664	0.465	0.324	0.191	0.128	0.998	1	1.02	0.853	0.468	0.287	0.219	0.198	0.166	> 10				
BT474	< 0.001		1.12	1.05	1.11	0.918	0.735	0.668	0.619	0.611	0.544	0.989	0.784	-0.125	-0.734	-0.825	-0.86	-0.874	-0.895	-0.922					
HCC1187			0.999	1.05	1.04	0.985	1.05	1.09	1.02	1.09	0.993	0.994	0.99	0.792	1.07	0.979	0.78	0.869	0.653	0.484	> 10				
MCF10A	< 0.001		0.996	0.999	0.979	0.939	0.852	0.748	0.653	0.582	0.444	1	1	1	0.976	0.723	0.496	0.304	0.179	0.099	> 10	4.29	0.177	0.284	0.00987
PDXHCI002	< 0.001		1.09	1.09	1.02	0.946	0.723	0.552	0.427	0.374	0.274	1.05	1	1.02	0.829	0.637	0.54	0.378	0.19	-0.143	> 10	1.73	1.16	0.182	0.00665
